These results are taken from US12590106B2, “Spiromacrocyclic orexin 2 receptor agonists” (H. Lundbeck A/S, priority 2023, dated 2026).

Where two headings read alike, the source gives them in different places.

This test has as its target T1, human Ox2R (Homo sapiens, UniProt O43614).
T1 construct: The gene encoding hOx2R was subcloned into the expression plasmid pcDNA5/FRT/TO; expressed in transfected cells; host or cells: CHO Flp-In cells (pcDNA5/FRT/TO with pOG44 Flp recombinase vector, hygromycin B selection)
T1 sequence (O43614 1-444): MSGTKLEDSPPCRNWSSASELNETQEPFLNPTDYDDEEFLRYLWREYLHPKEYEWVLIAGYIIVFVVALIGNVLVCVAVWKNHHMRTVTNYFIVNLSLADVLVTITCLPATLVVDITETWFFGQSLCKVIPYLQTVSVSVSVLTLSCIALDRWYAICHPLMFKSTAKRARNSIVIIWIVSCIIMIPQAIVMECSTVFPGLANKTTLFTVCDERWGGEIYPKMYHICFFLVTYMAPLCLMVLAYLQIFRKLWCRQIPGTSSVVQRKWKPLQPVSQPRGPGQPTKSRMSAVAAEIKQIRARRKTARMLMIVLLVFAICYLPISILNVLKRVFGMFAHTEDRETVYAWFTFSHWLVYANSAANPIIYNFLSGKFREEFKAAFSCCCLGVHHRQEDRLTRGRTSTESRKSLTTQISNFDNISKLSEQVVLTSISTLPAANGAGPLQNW
Kind of test: Measurement of OX2R agonist activity (cell-based calcium release assay). Particulars: for EC50: intracellular calcium. An excerpt:
Measurement of OX2R Agonist Activity
The Ox2R has a broad signaling profile and couple to a range of different Gα-proteins. The cell-based calcium release assay is primarily assessing signaling through the Gαq signaling pathway, which promotes calcium mobilization via inositol triphosphate production upon activation of Ox2R.
A CHO Flp-In cell-line stably expressing the human Ox2R (hOx2R-CHO Flp-In) was established as follows: The gene encoding hOx2R was subcloned into the expression plasmid pcDNA5/FRT/TO and then transfected into CHO Flp-In cells together with the Flp recombinase vector, pOG44. Cells were cultured in growth medium: Ham's F12 (Gibco), 10% fetal bovine serum (Gibco) and 100 U/mL penicillin-streptomycin (Gibco) supplemented with hygromycin B (Thermo Fisher Scientific) as selection marker at 37° C. in the presence of 5% CO2.
To prepare the hOx2R-CHO FlpIn cells for calcium release assay, the cells were suspended in growth medium and seeded in black, clear-bottomed 384-well plates (Corning) at 10,000 cells/well. The plated cells were grown overnight at 37° C. and 5% CO2. The following day, the media was removed, and the cells were incubated with assay buffer (HBSS with 20 mM HEPES, pH 7.4) containing 2.5 mM probenecid (Thermo Fisher Scientific), 10 mM CaCl2, 0.1% pluronic F68 (Gibco) and 1× calcium-4 dye (Molecular Devices) for 1 h at 37° C. and 5% CO2. After incubation, cells were allowed to equilibrate at room temperature for 15 minutes and then loaded into FDSS7000Ex system (Hamamatsu Photonics) together with a plate containing test compounds serially diluted in assay buffer. Cells were stimulated with test compounds (online injection) and the agonist activity was determined as an increase in intracellular calcium concentration measured from the ratio of fluorescence emission at 542 nm by excitation at 480 nm. The agonist response for each applied concentration was assessed as the ratio: maximum fluorescence/average pre-stimulated fluorescence and was normalized to responses from assay buffer alone (0% response) and 10 μM Danavorexton (100% response). EC50 and Emax values were calculated from concentration-response curves by using Genedata Screener software.

The mark [1] stands for this setting: hOx2R-CHO Flp-In cells, n≥2 tests, read-out: EC50.
The mark [2] stands for this setting: hOx2R-CHO Flp-In cells, normalized to assay buffer (0%) and 10 μM Danavorexton (100%), n≥2 tests, read-out: Emax (%).

One may read the EC50 as the midpoint of the concentration-response curve. By Emax is commonly meant the maximal effect, on the per cent scale that the assay sets. For `CCS(=O)(=O)N[C@H]1CC[C@@]2(Cc3ccc(F)c(c3)-c3ccccc3OCc3coc2n3)C1` [Example 11, N-[(1′S,14R)-19-fluorospiro[8,12-dioxa-21-azatetracyclo[14.3.1.110,13.02,7]henicosa-1(19),2,4,6,10,13(21),16(20),17-octaene-14,3′-cyclopentane]-1′-yl]ethanesulfonamide], under setting [1], the EC50 is 0.68 nM. Further, the Emax under setting [2] was found to be 97%.

In the case of `CS(=O)(=O)N[C@H]1CC[C@@]2(CO[C@H]3CC[C@H](CC3)c3ncccc3OCc3coc2n3)C1` [Example 66, N-[(1s,1′S,14R,17s)-spiro[8,12,16-trioxa-3,22-diazatetracyclo[15.2.2.110,13.02,7]docosa-2,4,6,10,13(22)-pentaene-14,3′-cyclopentane]-1′-yl]methanesulfonamide], under setting [1], the EC50 stood at 81 nM. The Emax under setting [2] came to 94%.

Take `CS(=O)(=O)N[C@H]1CC[C@@]2(Cc3cc(ccn3)-c3ccccc3OCc3coc2n3)C1` [Example 49, N-[(1′S,14S)-spiro[8,12-dioxa-17,21-diazatetracyclo[14.3.1.110,13.02,7]henicosa-1(20),2,4,6,10,13(21),16,18-octaene-14,3′-cyclopentane]-1′-yl]methanesulfonamide]: the 50% effective concentration (EC50) under setting [1] was found to be 2000 nM. Moreover, under setting [2], the Emax came out at 94%.

`CS(=O)(=O)N[C@H]1CC[C@@]2(COCCc3cccc(c3)OCc3coc2n3)C1` [Example 40, N-[(1′S,8S)-spiro[2,6,10-trioxa-18-azatricyclo[11.3.1.14,7]octadeca-1(17),4,7(18),13,15-pentaene-8,3′-cyclopentane]-1′-yl]methanesulfonamide]: the EC50 under setting [1] came out at 1700 nM. Moreover, under setting [2], the Emax amounted to 94%.

With `Cn1cc2c(n1)OCc1coc(n1)[C@]1(CC[C@H](NS(C)(=O)=O)C1)Cc1cc-2c(F)cc1F` [Example 83, N-[(1′S,13R)-16,18-difluoro-4-methyl-spiro[7,11-dioxa-4,5,20-triazatetracyclo[13.3.1.19,12.02,6]icosa-1(18),2,5,9,12(20),15(19),16-heptaene-13,3′-cyclopentane]-1′-yl]methanesulfonamide], the EC50 under setting [1] was found to be 2.6 nM. Moreover, under setting [2], the Emax was 100%.

Take `CS(=O)(=O)N[C@H]1CC[C@@]2(CO[C@H]3CC[C@H](CC3)c3cccc(c3)OCCc3coc2n3)C1` [Example 70, N-[(1s,1′S,14R,17s)-spiro[7,12,16-trioxa-22-azatetracyclo[15.2.2.12,6.110,13]tricosa-2,4,6(23),10,13(22)-pentaene-14,3′-cyclopentane]-1′-yl]methanesulfonamide]: the EC50 under setting [1] came to 1.8 nM. Also, the Emax under setting [2] was 98%.

As to `CS(=O)(=O)N[C@H]1CC[C@@]2(Cc3cc(c(F)cc3Cl)-c3cccc(F)c3OCc3coc2n3)C1` [Example 32, N-[(1′S,14R)-17-chloro-6,19-difluoro-spiro[8,12-dioxa-21-azatetracyclo[14.3.1.110,13.02,7]henicosa-1(19),2,4,6,10,13(21),16(20),17-octaene-14,3′-cyclopentane]-1′-yl]methanesulfonamide], under setting [1], the concentration for a half-maximal effect (EC50) worked out at 0.28 nM. For the same molecule, the Emax under setting [2] worked out at 98%.

As for `C[C@@H]1Oc2ccccc2-c2cccc(c2)C[C@@]2(CC[C@H](NS(C)(=O)=O)C2)c2nccc1n2` (single isomer, unassigned) [Example 89, N-[(1′S,9S*,15R)-9-methylspiro[8-oxa-13,22-diazatetracyclo[15.3.1.110,14.02,7]docosa-1(21),2,4,6,10,12,14(22),17,19-nonaene-15,3′-cyclopentane]-1′-yl]methanesulfonamide], under setting [1], the EC50 came to 3.7 nM. The Emax under setting [2] is 110%.

In the case of `Cn1cc2c(n1)OCc1coc(n1)[C@]1(CC[C@H](NS(C)(=O)=O)C1)Cc1ccc(F)c-2c1` [Example 81, N-[(1′S,13R)-18-fluoro-4-methyl-spiro[7,11-dioxa-4,5,20-triazatetracyclo[13.3.1.19,12.02,6]icosa-1(18),2,5,9,12(20),15(19),16-heptaene-13,3′-cyclopentane]-1′-yl]methanesulfonamide], the EC50 under setting [1] came to 0.068 nM. For the same molecule, under setting [2], the Emax stood at 100%.

Regarding `CS(=O)(=O)N[C@H]1CC[C@@]2(CO[C@H]3CC[C@H](CC3)c3ccccc3OCc3coc2n3)C1` [Example 2, N-[(1s,1′S,14R,17s)-spiro[8,12,16-trioxa-22-azatetracyclo[15.2.2.110,13.02,7]docosa-2,4,6,10,13(22)-pentaene-14,3′-cyclopentane]-1′-yl]methanesulfonamide], the EC50 under setting [1] came to 0.43 nM. Moreover, the Emax under setting [2] was determined as 99%.

Regarding `CS(=O)(=O)N[C@H]1CC[C@@]2(Cc3ccnc(c3)-c3cccc(F)c3OCc3coc2n3)C1` [Example 19, N-[(1′S,14R)-6-fluorospiro[8,12-dioxa-19,21-diazatetracyclo[14.3.1.110,13.02,7]henicosa-1(19),2,4,6,10,13(21),16(20),17-octaene-14,3′-cyclopentane]-1′-yl]methanesulfonamide], under setting [1], the EC50 came to 35 nM. In addition, under setting [2], the Emax is 100%.

Consider `CS(=O)(=O)N[C@H]1CC[C@@]2(Cc3ccc(F)c(c3)-c3cccc(F)c3OCc3noc2n3)C1` [Example 112, N-[(1′S,14R)-6,19-difluorospiro[8,12-dioxa-11,21-diazatetracyclo[14.3.1.110,13.02,7]henicosa-1(20),2,4,6,10,13(21),16,18-octaene-14,3′-cyclopentane]-1′-yl]methanesulfonamide], for which, under setting [1], the EC50 came to 1.3 nM. For the same molecule, the Emax under setting [2] is 94%.

On to `C[C@H]1C[C@H](NS(C)(=O)=O)C[C@]12Cc1ccc(F)c(c1)-c1cccc(F)c1OCc1ccnc2n1` (single isomer, unassigned) [Example 94, N-[(1′S,4′S,15R)-6,20-difluoro-4′-methyl-spiro[8-oxa-13,22-diazatetracyclo[15.3.1.110,14.02,7]docosa-1(20),2,4,6,10,12,14(22),17(21),18-nonaene-15,3′-cyclopentane]-1′-yl]methanesulfonamide or N-[(1′R,4′R,15S)-6,20-difluoro-4′-methyl-spiro[8-oxa-13,22-diazatetracyclo[15.3.1.110,14.02,7]docosa-1(20),2,4,6,10,12,14(22),17(21),18-nonaene-15,3′-cyclopentane]-1′-yl]methanesulfonamide], for which the maximal response (Emax) stood at 94%. Under “EC50 (nM), hOx2R-CHO Flp-In cells, n≥2 tests”, the EC50 was found to be 6.7 nM.

With `CS(=O)(=O)N[C@H]1CC[C@@]2(Cc3ccc(F)c(c3)-c3ccc(F)cc3OCc3ccnc2n3)C1` [Example 92, N-[(1′S,15R)-5,20-difluorospiro[8-oxa-13,22-diazatetracyclo[15.3.1.110,14.02,7]docosa-1(20),2,4,6,10,12,14(22),17(21),18-nonaene-15,3′-cyclopentane]-1′-yl]methanesulfonamide], the EC50 under setting [1] turned out to be 16 nM. In addition, the Emax under setting [2] stood at 110%.

With `CS(=O)(=O)N[C@H]1CC[C@@]2(CO[C@H]3CC[C@H](CC3)c3ccccc3OCc3nc2no3)C1` [Example 65, N-[(1s,1′S,14R,17s)-spiro[8,11,16-trioxa-12,22-diazatetracyclo[15.2.2.110,13.02,7]docosa-2,4,6,10(22),12-pentaene-14,3′-cyclopentane]-1′-yl]methanesulfonamide], the EC50 under setting [1] came to 45 nM. Moreover, under setting [2], the Emax is 99%.

Consider “N-[(1′S,4′S,15R)-6,20-difluoro-4′-methyl-spiro[8-oxa-13,22-diazatetracyclo[15.3.1.110,14.02,7]docosa-1(20),2,4,6,10,12,14(22),17(21),18-nonaene-15,3′-cyclopentane]-1′-yl]methanesulfonamide or N-[(1′R,4′R,15S)-6,20-difluoro-4′-methyl-spiro[8-oxa-13,22-diazatetracyclo[15.3.1.110,14.02,7]docosa-1(20),2,4,6,10,12,14(22),17(21),18-nonaene-15,3′-cyclopentane]-1′-yl]methanesulfonamide [Example 93]”, for which, under setting [1], the EC50 worked out at 3.1 nM. Under “hOx2R-CHO Flp-In cells, normalized to assay buffer (0%) and 10 μM Danavorexton (100%), n≥2 tests”, the “Emax (%)” value came out at 94%.
